# From PMC12471852, “Design and Synthesis of Marine-Inspired Itampolin A Derivatives to Overcome Chemoresistance in NSCLC via Cholesterol Homeostasis Modulation” (Marine Drugs, 2025)
# “And” between values parts separate entries of the source, which are not always exact repeats. Equal values may be shown once. “Also recorded” adds a separate entry of the source.
# How the values were obtained:
# PC9/GR cells [1] = experiment: Clonogenic survival / colony formation assay; type: cell-based, human; details: 24 h pretreatment, 14 days culture, p < 0.05 vs untreated controls
# Description: (§1) To evaluate the tumor-selective activity of compounds 4l and 4m, dose–response studies were performed on wild-type PC9 and gefitinib-resistant PC9/GR cell lines. […] Subtoxic concentrations of 25, 50, and 75 μM were employed to ensure specificity for drug-resistant phenotypes while preserving normal cell viability. […] To assess long-term proliferative potential, clonogenic survival assays were performed. Cells pretreated with 4l (24 h) were trypsinized to generate single-cell suspensions, plated at 300 cells/well, and cultured for 14 days. […] Cell migration ability was evaluated by the scratch healing assay. […] To evaluate the pro-apoptotic efficacy of 4l, we employed a dual-staining approach using Annexin V-FITC and propidium iodide (PI) for quadrant-specific quantification of programmed cell death. Annexin V binds externalized phosphatidylserine (PS), a hallmark of early apoptosis, while PI permeabilization discriminates late-stage apoptotic or necrotic cells.
# Clonogenic Survival: Single-cell suspensions (300 cells/well) were cultured for 14 days. Colonies (>50 cells) were fixed (4% PFA), stained with crystal violet, and counted.
# PC9/GR cells were seeded into 6-well plates at a density of […] and cultured in a 37 °C incubator for 2 weeks. The culture medium was then discarded, and the cells were washed with PBS. […] Finally, the number of cell colonies was counted.
# [2] = Body weight / toxicity monitoring in tumor-bearing nude mice; type: in vivo, BALB/c nude mice
# Text: For many years, the technique of implanting human tumor cell lines into nude mice models has been widely used to predict the anti-cancer effects of targeted anti-cancer drugs. In the nude mouse tumor implantation experiment, we continuously monitored the changes in the mouse body weight after administration. […] At the end of the experiment, after euthanizing the nude mice using the spinal dislocation method, we isolated the tumor tissues, weighed them, and conducted statistical analysis.
# BALB/c nude mice (n = 12) were subcutaneously injected with PC9/GR cells (1 × 10^7 cells/mouse). When tumors reached 50 mm^3, mice received daily 4l or vehicle (3 weeks). Tumor volume (0.52 × length × width^2) and weight were recorded post-euthanasia.
# BEAS-2B cells = experiment: MTT cytotoxicity assay, normal bronchial epithelial BEAS-2B cells; type: cell-based, human
# Description: The cytotoxicity of compound 4l on normal human bronchial epithelial cells (BEAS-2B) was also evaluated using the MTT assay. Cells treated with 0.1% DMSO served as the vehicle control.
# (§2) The human normal lung epithelial cell line BEAS-2B, non-small cell lung carcinoma (NSCLC) cell line PC9, and gefitinib-resistant PC9/GR cell line were purchased from Procell Life Science & Technology Co., Ltd. (Wuhan, China). All cell lines were maintained in RPMI-1640 medium (BI, Beit Haemek, Mateh Asher, Israel) supplemented with 10% fetal bovine serum (FBS, Gibco, Thermo Fisher Scientific, Waltham, MA, USA) and 1% penicillin–streptomycin–amphotericin B sterile solution (Solarbio, Beijing, China). Cells were cultured at 37 °C in a humidified incubator with 5% CO2. For subculturing, cells were harvested using trypsin-EDTA solution upon reaching 70–80% confluence and resuspended at appropriate densities for subsequent experiments.
# (§3) MTT: Cells (5 × 10^4/mL) were treated with 4l (25–100 μM, 24–48 h), incubated with MTT (10 μL/well, 4–6 h), and dissolved in DMSO. Absorbance (490 nm) was measured to assess viability.
# TM7SF2 = experiment: Transcriptome sequencing, differentially expressed genes; type: cell-based, human; details: 4l-treated vs untreated PC9/GR
# Text: By comparing PC9/GR treated with the small molecule compound 4l against untreated PC9/GR controls, we identified significant differentially expressed genes (DEGs). […] The results of the GO enrichment analysis further emphasized the significant impact of the small molecule compound 4l on steroid biosynthesis and metabolism in lung cancer cells, with the top five pathways being steroid biosynthesis, steroid metabolism, the metabolism of hydroxylated compounds, steroid biosynthesis, and cholesterol biosynthesis (Figure 4C). […] TM7SF2 has been identified as a critical regulator of cholesterol biosynthesis and steroid metabolism in lung cancer cells, a finding central to overcoming chemoresistance in NSCLC [28]. Thus, we selected TM7SF2 as the target gene for further experiments and investigated the protein expression of TM7SF2 in 4l-treated PC9/GR cells using immunoblotting.
# PC9 cells [3] = experiment: MTT anti-proliferation assay, PC9 cells; type: cell-based, human; details: for MTT, PC9, value relative to control (=100), single replicate: 24 h
# Description: as §1, §2, §3
# PC9/GR cells [4] = experiment: Transwell migration assay; type: cell-based, human
# Description: Cell migration was assessed using Transwell chambers (8.0 µm pore size; Corning, NY, USA). Cells suspended in serum-free medium were seeded into the upper chamber. The lower chamber contained 1 mL of DMEM supplemented with 10% FBS as a chemoattractant. Following 24 h of incubation, non-migrated cells on the upper membrane surface were removed. Migrated cells adherent to the lower membrane surface were fixed, stained with 0.1% crystal violet (Solarbio, China) for 15 min, and imaged. Migrated cells were quantified by counting five random fields per insert under a light microscope (Olympus, Tokyo, Japan).
# PC9 cells [5] = experiment: Intracellular total cholesterol quantification, PC9 cells; type: cell-based, human; details: PC9, 24 h treatment
# Description: (§4) Following sample collection, intracellular total cholesterol levels were quantified using a commercial Total Cholesterol (T-CHO) assay kit (Nanjing Jiancheng Bioengineering Institute, Nanjing, China) according to the manufacturer’s protocol. Cells were treated as indicated 24 h prior to analysis. Total cellular protein was extracted, and protein concentration was determined using a bicinchoninic acid (BCA) assay. Protein aliquots were loaded in duplicate into a 96-well microplate. Reagents were added sequentially as specified in the kit instructions. After incubation at 37 °C for 10 min, absorbance was measured at 510 nm using a microplate reader. Total cholesterol content was normalized to cellular protein concentration and expressed as μg cholesterol per mg protein.
# PC9/GR cells [6] = experiment: Intracellular total cholesterol quantification, PC9/GR cells; type: cell-based, human
# Description: as §4
# [7] = TM7SF2-overexpressing PC9/GR cells
compound,measurement,setting,value
"O=C(NCCc1cc(Br)c(O)c(Br)c1)Nc1ccc(F)cc1 [4l, 1-(3,5-dibromo-4-hydroxyphenethyl)-3-(4-fluorophenyl)urea]",colony formation,PC9/GR cells [1],statistically significant inhibition
same,mouse body weight after administration,"[2]; 200 mg/kg, 21 days",no significant decrease or fluctuation
same,toxicity to nude mice / systemic toxicity,[2]; dosage used in the xenograft experiment,did not have significant toxicity; also recorded: without eliciting systemic toxicity; also recorded: without inducing systemic toxicity
same,"MTT, normal cells, value relative to control (=100), single replicate","BEAS-2B cells; 25 (μM), 24 h",88.6 and 95.3 and 97.6 and 88.2
same,"MTT, normal cells, value relative to control (=100), single replicate","BEAS-2B cells; 25 (μM), 48 h",90.6 and 83.5 and 89.7 and 76.4
same,anti-proliferative effect on BEAS-2B cells,"BEAS-2B cells; 25 to 100 μM, 24 h",no significant anti-proliferative effects
same,"MTT, normal cells, value relative to control (=100), single replicate","BEAS-2B cells; 50 (μM), 24 h",80.6 and 83.5 and 79.7 and 76.4
same,"MTT, normal cells, value relative to control (=100), single replicate","BEAS-2B cells; 50 (μM), 48 h",79.8 and 82.9 and 80.5 and 70.5
same,"MTT, normal cells, value relative to control (=100), single replicate","BEAS-2B cells; 75 (μM), 24 h",79.4 and 80.4 and 76.3 and 78.9
same,"MTT, normal cells, value relative to control (=100), single replicate","BEAS-2B cells; 75 (μM), 48 h",75.2 and 77.7 and 73.1 and 76.4
same,"MTT, normal cells, value relative to control (=100), single replicate","BEAS-2B cells; 100 (μM), 24 h",80.2 and 71.5 and 74.6 and 73.5
same,"MTT, normal cells, value relative to control (=100), single replicate","BEAS-2B cells; 100 (μM), 48 h",77.3 and 80.6 and 71 and 69.3
same,cytotoxicity in normal lung cells,BEAS-2B cells; doses ≤ 100 μM,negligible cytotoxicity; also recorded: minimal cytotoxicity
same,cellular proliferation efficiency of BEAS-2B cells,"BEAS-2B cells; prolonged treatment, 48 h",remained comparable to untreated controls
same,TM7SF2 gene expression (differentially expressed genes),TM7SF2,significantly downregulated
same,"MTT, PC9, value relative to control (=100), single replicate",PC9 cells [3]; 25 (μM),96.45 and 96.61 and 99.63 and 98.61
same,"MTT, PC9, value relative to control (=100), single replicate",PC9 cells [3]; 50 (μM),81.78 and 87.43 and 80.72 and 89.73
same,"MTT, PC9, value relative to control (=100), single replicate",PC9 cells [3]; 75 (μM),88.89 and 73.34 and 79.63 and 70.04
same,"MTT, PC9, value relative to control (=100), single replicate",PC9 cells [3]; 100 (μM),57.64 and 69.62 and 60.69 and 61.33
same,IC50,"PC9 cells [3]; Homo sapiens, PC-9, wild-type PC9, MTT, 24-hour treatment, 0–100 μM, read-out: IC50, growth inhibition",136 µM
same,PC9/GR cell motility (Transwell migration),"PC9/GR cells [4]; 25, 50 and 75 μM",significant suppression
same,"effect of TM7SF2 overexpression on 4l inhibition of migration, proliferation and invasion",PC9/GR cells [4]; [7],attenuated the inhibitory effects
same,intracellular cholesterol levels,PC9 cells [5],no significant effect
same,intracellular cholesterol levels,"PC9/GR cells [6]; PC9/GR, 24 h treatment",reduced intracellular cholesterol levels
same,effect of TM7SF2 overexpression on the 4l-induced change in intracellular cholesterol,PC9/GR cells [6]; [7],abrogated the reduction in intracellular cholesterol levels
